According to ChEMBL document CHEMBL1145424, “Novel boron-containing, nonclassical antifolates: synthesis and preliminary biological and structural evaluation” (J Med Chem, 2007):
In brackets after ≈: the same amount, converted by molar mass.

Columns and labels:
SNB-7 = experiment: Growth inhibition of human SNB7 cells after 72 hrs; assay type: functional, cell-based; conditions: SNB-7, 72 h
DLD-1 = experiment: Growth inhibition of human DLD1 cells after 72 hrs; assay type: functional, cell-based; conditions: DLD-1, 72 h
ZR-75-1 = experiment: Growth inhibition of human ZR-75-1 cells after 72 hrs; assay type: functional, cell-based; conditions: ZR-75-1, 72 h
PC-3 = experiment: Growth inhibition of human PC3 cells after 72 hrs; assay type: functional, cell-based; conditions: PC-3, 72 h
CAKI-1 = experiment: Growth inhibition of human CAKI1 cells after 72 hrs; assay type: functional, cell-based; conditions: CAKI-1, 72 h
NCI-H23 = experiment: cells; conditions: Homo sapiens, NCI-H23, 72 h
Description: Growth inhibition of human NCI-H23 cells after 72 hrs

LOX IMVI = experiment: cells; conditions: Homo sapiens, 72 h
Description: Growth inhibition of human LOX IMVI cells after 72 hrs

IC50 (DLD-1): > 60 µg/mL
IC50 (PC-3): 0.027 µg/mL (≈ 0.0594 µM)
IC50 (NCI-H23): 0.29 µg/mL (≈ 0.638 µM)
IC50 (LOX IMVI): 0.057 µg/mL (≈ 0.125 µM)
SMILES: CN(Cc1cnc2nc(N)nc(N)c2n1)c1ccc(C(=O)N[C@@H](CCC(=O)O)C(=O)O)cc1 [METHOTREXATE]
IC50 (SNB-7): > 60 µg/mL
IC50 (ZR-75-1): > 60 µg/mL
IC50 (CAKI-1): > 60 µg/mL
